Measured values as given in ChEMBL document CHEMBL3885861, “Open TG-GATES”.

Organism: Rattus norvegicus
Experiment: Open TG-GATES - Regimen: Daily Repeat
Assay type: toxicity, organism-based, Sprague-Dawley
Parameters: regimen Daily Repeat, gender Male, age 6 weeks
Conditions: in vivo, po, 2 mg/kg, route gavage, dose level Low; for APTT / Bas / Eos / Fbg / Hb / Ht / Lym / MCH / MCHC / MCV / Mono / Neu / PT / Plat / RBC / Ret / WBC: tissue Blood; for KIDNEY_L / KIDNEY_R / KIDNEY_TOTAL: tissue Kidney; for LIVER: tissue Liver; for ALP / ALT / AST / BUN / CRE / Ca / Cl / DBIL / GLC / IP / K / LDH / Na / PL / RALB / TBIL / TC / TG / TP / gamma-GTP: tissue Plasma

Compound `O=P1(N(CCCl)CCCl)NCCCO1` (stereo not drawn) [CYCLOPHOSPHAMIDE ANHYDROUS] has a TERMINAL_BW (72 h, time 3 day) of 217.7 g, an APTT (72 h, time 3 day) of 20.8 s and a Bas (72 h, time 3 day) of 0%. The Eos (72 h, time 3 day) was 1%, the Fbg (72 h, time 3 day) was 299.8 mg/dL and the Hb (72 h, time 3 day) was 13.3 g/dL. The Ht (72 h, time 3 day) was 40.1%, the Lym (72 h, time 3 day) was 79.8% and the MCH (72 h, time 3 day) was 21.3 pg. For the same compound, the MCHC (72 h, time 3 day) was 33.1%, the MCV (72 h, time 3 day) was 64.3 fL and the Mono (72 h, time 3 day) was 3%. It also gave a Neu (72 h, time 3 day) of 15%, a PT (72 h, time 3 day) of 16.5 s and a Plat (72 h, time 3 day) of 126.5 x10_4/uL. The RBC (72 h, time 3 day) was 624.6 x10_4/ul, the Ret (72 h, time 3 day) was 6.5% and the WBC (72 h, time 3 day) was 74.5 x10_2/uL. It also gave a KIDNEY_L (72 h, time 3 day) of 1 g, a KIDNEY_R (72 h, time 3 day) of 1 g and a KIDNEY_TOTAL (72 h, time 3 day) of 1.9 g. For the same compound, the LIVER (72 h, time 3 day) was 10.2 g, the ALP (72 h, time 3 day) was 1778.2 IU/L and the ALT (72 h, time 3 day) was 40.2 IU/L. For the same compound, the AST (72 h, time 3 day) was 67 IU/L, the BUN (72 h, time 3 day) was 17.8 mg/dL and the CRE (72 h, time 3 day) was 0.2 mg/dL. The Ca (72 h, time 3 day) was 10.8 mg/dL, the Cl (72 h, time 3 day) was 106 meq/L and the DBIL (72 h, time 3 day) was 0 mg/dL. The GLC (72 h, time 3 day) was 187.4 mg/dL, the IP (72 h, time 3 day) was 7.1 mg/dL and the K (72 h, time 3 day) was 4.1 meq/L. It also gave an LDH (72 h, time 3 day) of 164.8 IU/L, a Na (72 h, time 3 day) of 141.8 meq/L and a PL (72 h, time 3 day) of 160.8 mg/dL. The RALB (72 h, time 3 day) was 3.1 g/dL, the TBIL (72 h, time 3 day) was 0.012 mg/dL and the TC (72 h, time 3 day) was 78.2 mg/dL. For the same compound, the TG (72 h, time 3 day) was 121.6 mg/dL, the TP (72 h, time 3 day) was 5.6 g/dL and the gamma-GTP (72 h, time 3 day) was 1.2 IU/L. The TERMINAL_BW ([…], time 7 day) was 254.7 g, the TERMINAL_BW ([…], time 14 day) was 305.2 g and the TERMINAL_BW ([…], time 28 day) was 367.9 g. The APTT ([…], time 7 day) was 22.6 s, the Bas ([…], time 7 day) was 0% and the Eos ([…], time 7 day) was 0.6%. For the same compound, the Fbg ([…], time 7 day) was 282.6 mg/dL, the Hb ([…], time 7 day) was 13.3 g/dL and the Ht ([…], time 7 day) was 40.1%. It also gave a Lym ([…], time 7 day) of 80.8%, an MCH ([…], time 7 day) of 21.7 pg and an MCHC ([…], time 7 day) of 33.2%. The MCV ([…], time 7 day) was 65.3 fL, the Mono ([…], time 7 day) was 2.4% and the Neu ([…], time 7 day) was 15.4%. The PT ([…], time 7 day) was 16.8 s, the Plat ([…], time 7 day) was 130 x10_4/uL and the RBC ([…], time 7 day) was 613.8 x10_4/ul. It also gave a Ret ([…], time 7 day) of 5.8%, a WBC ([…], time 7 day) of 88.7 x10_2/uL and an APTT ([…], time 14 day) of 22.2 s. It also gave a Bas ([…], time 14 day) of 0%, an Eos ([…], time 14 day) of 0.8% and a Fbg ([…], time 14 day) of 315 mg/dL. The Hb ([…], time 14 day) was 13.9 g/dL, the Ht ([…], time 14 day) was 41% and the Lym ([…], time 14 day) was 82.6%. The MCH ([…], time 14 day) was 20.2 pg, the MCHC ([…], time 14 day) was 33.9% and the MCV ([…], time 14 day) was 59.7 fL. The Mono ([…], time 14 day) was 2.4%, the Neu ([…], time 14 day) was 13.2% and the PT ([…], time 14 day) was 14.8 s. The Plat ([…], time 14 day) was 121.1 x10_4/uL, the RBC ([…], time 14 day) was 687.8 x10_4/ul and the Ret ([…], time 14 day) was 4.7%. The WBC ([…], time 14 day) was 88.9 x10_2/uL, the APTT ([…], time 28 day) was 23.3 s and the Bas ([…], time 28 day) was 0%. It also gave an Eos ([…], time 28 day) of 1%, a Fbg ([…], time 28 day) of 302.6 mg/dL and a Hb ([…], time 28 day) of 14.7 g/dL. For the same compound, the Ht ([…], time 28 day) was 42.7%, the Lym ([…], time 28 day) was 78.4% and the MCH ([…], time 28 day) was 19.4 pg. For the same compound, the MCHC ([…], time 28 day) was 34.5%, the MCV ([…], time 28 day) was 56.1 fL and the Mono ([…], time 28 day) was 2.2%. The Neu ([…], time 28 day) was 17.2%, the PT ([…], time 28 day) was 16.4 s and the Plat ([…], time 28 day) was 98.2 x10_4/uL. For the same compound, the RBC ([…], time 28 day) was 761.2 x10_4/ul, the Ret ([…], time 28 day) was 2.6% and the WBC ([…], time 28 day) was 84.8 x10_2/uL. For the same compound, the KIDNEY_L ([…], time 7 day) was 1.1 g, the KIDNEY_R ([…], time 7 day) was 1.1 g and the KIDNEY_TOTAL ([…], time 7 day) was 2.3 g. The KIDNEY_L ([…], time 14 day) was 1.2 g, the KIDNEY_R ([…], time 14 day) was 1.2 g and the KIDNEY_TOTAL ([…], time 14 day) was 2.5 g. It also gave a KIDNEY_L ([…], time 28 day) of 1.3 g, a KIDNEY_R ([…], time 28 day) of 1.3 g and a KIDNEY_TOTAL ([…], time 28 day) of 2.6 g. The LIVER ([…], time 7 day) was 12 g, the LIVER ([…], time 14 day) was 13.3 g and the LIVER ([…], time 28 day) was 14.1 g. For the same compound, the ALP ([…], time 7 day) was 1581 IU/L, the ALT ([…], time 7 day) was 41.4 IU/L and the AST ([…], time 7 day) was 69.4 IU/L. The BUN ([…], time 7 day) was 16.6 mg/dL, the CRE ([…], time 7 day) was 0.2 mg/dL and the Ca ([…], time 7 day) was 10.9 mg/dL. For the same compound, the Cl ([…], time 7 day) was 105 meq/L, the DBIL ([…], time 7 day) was 0 mg/dL and the GLC ([…], time 7 day) was 184.6 mg/dL. It also gave an IP ([…], time 7 day) of 7.7 mg/dL, a K ([…], time 7 day) of 4.2 meq/L and an LDH ([…], time 7 day) of 193.6 IU/L. It also gave a Na ([…], time 7 day) of 143.2 meq/L, a PL ([…], time 7 day) of 158.2 mg/dL and an RALB ([…], time 7 day) of 3 g/dL. The TBIL ([…], time 7 day) was 0.02 mg/dL, the TC ([…], time 7 day) was 76.8 mg/dL and the TG ([…], time 7 day) was 137.2 mg/dL. For the same compound, the TP ([…], time 7 day) was 5.5 g/dL, the gamma-GTP ([…], time 7 day) was 3.6 IU/L and the ALP ([…], time 14 day) was 1389 IU/L. For the same compound, the ALT ([…], time 14 day) was 34.4 IU/L, the AST ([…], time 14 day) was 60.6 IU/L and the BUN ([…], time 14 day) was 18.2 mg/dL. For the same compound, the CRE ([…], time 14 day) was 0.2 mg/dL, the Ca ([…], time 14 day) was 10.7 mg/dL and the Cl ([…], time 14 day) was 107.2 meq/L. It also gave a DBIL ([…], time 14 day) of 0.002 mg/dL, a GLC ([…], time 14 day) of 174.4 mg/dL and an IP ([…], time 14 day) of 6.5 mg/dL. For the same compound, the K ([…], time 14 day) was 4.2 meq/L, the LDH ([…], time 14 day) was 141.4 IU/L and the Na ([…], time 14 day) was 142.8 meq/L. It also gave a PL ([…], time 14 day) of 150.4 mg/dL, an RALB ([…], time 14 day) of 3.1 g/dL and a TBIL ([…], time 14 day) of 0.022 mg/dL. It also gave a TC ([…], time 14 day) of 71.4 mg/dL, a TG ([…], time 14 day) of 145.6 mg/dL and a TP ([…], time 14 day) of 5.7 g/dL. For the same compound, the gamma-GTP ([…], time 14 day) was 2 IU/L, the ALP ([…], time 28 day) was 1055.8 IU/L and the ALT ([…], time 28 day) was 34.8 IU/L. The AST ([…], time 28 day) was 61.4 IU/L, the BUN ([…], time 28 day) was 18.2 mg/dL and the CRE ([…], time 28 day) was 0.2 mg/dL. For the same compound, the Ca ([…], time 28 day) was 10.3 mg/dL, the Cl ([…], time 28 day) was 105.8 meq/L and the DBIL ([…], time 28 day) was 0 mg/dL. It also gave a GLC ([…], time 28 day) of 175.2 mg/dL, an IP ([…], time 28 day) of 6.6 mg/dL and a K ([…], time 28 day) of 4 meq/L. The LDH ([…], time 28 day) was 131.6 IU/L, the Na ([…], time 28 day) was 144.2 meq/L and the PL ([…], time 28 day) was 141.8 mg/dL. The RALB ([…], time 28 day) was 3.1 g/dL, the TBIL ([…], time 28 day) was 0.02 mg/dL and the TC ([…], time 28 day) was 72.6 mg/dL. For the same compound, the TG ([…], time 28 day) was 138.4 mg/dL, the TP ([…], time 28 day) was 6.2 g/dL and the gamma-GTP ([…], time 28 day) was 1 IU/L.
